# Values quoted from earlier work, collected in patent US20060088904A1, “Methods for the synthesis of astaxanthin” (priority 2004, published 2006).
# Legend:
# [1] = system: peroxyl radical chain reaction in liposome systems; details: appropriate dose
# [2] = system: transformed cells as well as normal prostatic epithelium; details: cultured human cells; alone and/or in combination with other antioxidants (e.g. vitamin E)
# [3] = system: cigarette-smoke induced lung pathology; details: ferret
Structure (SMILES),suppression of peroxyl radical chain reaction [1],growth inhibition [2],protection against cigarette-smoke induced lung pathology [3]
CC1=C(/C=C/C(C)=C/C=C/C(C)=C/C=C/C=C(C)/C=C/C=C(C)/C=C/C2=C(C)C(=O)C(O)CC2(C)C)C(C)(C)CC(O)C1=O (stereo not drawn) [astaxanthin],completely suppress,,
CC(C)=CCC/C(C)=C/C=C/C(C)=C/C=C/C(C)=C/C=C/C=C(C)/C=C/C=C(C)/C=C/C=C(\C)CCC=C(C)C [lycopene],,growth inhibitory,protective
